Data set [1] concerns pentagastrin-stimulated gastric acid secretion. The data set is described as follows: Test on inhibition of pentagastrin-stimulated gastric acid secretion. Format: in vivo, rat. As to conditions: SD rats, 0.03 mg/kg intraduodenal, acid output 1 to 4 hours after administration, pentagastrin 15 μg/kg/hr. As for the experimental part:
Test on Inhibition of Pentagastrin-stimulated Gastric Acid Secretion
Male Sprague-Dawley (SD)-strain rats were used. Under anesthesia with ether, each rat was subjected to the operation for pylorus ligation and placement of a duodenal catheter and gastric fistula. After completion of the operation, each rat was held in a Bollman-type cage and constantly infused with 15 μg/kg/hr of pentagastrin through the tail vein. Test compounds were suspended in a 0.5% sodium carboxymethylcellulose solution (which will hereinafter be called “vehicle”). Administration of the vehicle or test compound was carried out through the intraduodenal catheter 1 hour after the beginning of pentagastrin infusion. Acidity of the collected gastric juice was measured by an automatic titrator. Acid output was determined by multiplying the volume of gastric juice by its acidity. Inhibition of acid output for 3 hours from 1 to 4 hours after administration of the test compound was calculated by the following equation.
Inhibition (%)=(mean acid output of vehicle administered group−mean acid output of compound group)/mean acid output of vehicle administered group×100

A short description of data set [2]: Test on hygroscopicity under high humidity conditions (2), 0.1 g sample. The data set is classed as physicochemical. As for the experimental part:
(§1) Test 3 (Test on Hygroscopicity under High Humidity Conditions)
(2) A saturated aqueous solution of potassium sulfate was charged in a desiccator and was allowed to stand for at least one day in a temperature controlled room set at 25° C. The sample (0.1 g) was stored and weighed. Hygroscopicity was measured by its weight change. The relative humidity at that time was 97.3% RH.

A short description of data set [3]: Test on hygroscopicity under high humidity conditions (1), 0.5 g sample. The data set is classed as physicochemical. The protocol: as §1
(1) A saturated aqueous solution of potassium sulfate was charged in a desiccator and was allowed to stand for at least one day in a temperature controlled room set at 25° C. The sample (0.5 g) was stored and weighed. Hygroscopicity was measured by its weight change. The relative humidity at that time was 97.3% RH.

In a further data set the target is T1, CCK-B receptor (Cavia porcellus, UniProt H0VZC5).
T1 sequence (H0VZC5 1-426): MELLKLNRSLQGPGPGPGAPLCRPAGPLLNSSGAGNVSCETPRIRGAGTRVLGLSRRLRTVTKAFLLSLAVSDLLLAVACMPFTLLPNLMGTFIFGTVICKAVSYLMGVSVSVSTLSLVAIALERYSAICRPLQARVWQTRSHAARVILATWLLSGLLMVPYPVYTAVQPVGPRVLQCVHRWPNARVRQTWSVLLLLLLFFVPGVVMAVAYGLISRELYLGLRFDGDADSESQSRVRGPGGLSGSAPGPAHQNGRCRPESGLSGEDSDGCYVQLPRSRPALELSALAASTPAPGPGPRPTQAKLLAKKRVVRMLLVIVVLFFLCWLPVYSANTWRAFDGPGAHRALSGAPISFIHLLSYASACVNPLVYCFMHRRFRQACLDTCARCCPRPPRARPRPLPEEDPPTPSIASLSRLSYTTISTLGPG
The data set is described as follows: Binding test to CCK-B receptor ([3H]CCK-8, cerebral cortex membranes). Set-up: species or system guinea pig. As to conditions: inhibition of specific binding of 1.0 nM [3H]CCK-8, 25° C., 2 hours. As for the experimental part:
Binding Test to CCK-B Receptor
The cerebral cortex excised from a Hartley-strain male guinea pig was homogenized in 50 times the amount of a 50 mM Tris-HCl buffer (pH 7.4), followed by centrifugal separation at 50000×g for 10 minutes. Addition of the same amount of the same buffer to the precipitate thus obtained and centrifugation were repeated 2 times. The final precipitate was homogenized in a 10 mM HEPES buffer (pH 6.5) containing 5 mM magnesium chloride, 1 mM EGTA, 0.25 mg/ml bacitracin and 130 mM sodium chloride, and used as the receptor preparation.
Binding assay was conducted by adding, to 50 μl of a test compound solution, 50 μl of a [^3H]CCK-8 solution having the final concentration of 1.0 nM and 900 μl of the receptor preparation (protein content: 800 μg/tube) and reacting them at 25° C. for 2 hours. After completion of the reaction, the mixture was suction filtrated through a Whatman GF/B filter treated in advance with 0.1% BSA. Rightly after filtration, the filter was washed four times, each with 3 ml of ice-cold 50 mM Tris-HCl buffer (pH 7.4). After a scintillator was added to the filter and the resulting filter was then allowed to stand for a day, radioactivity on the filter was measured by a liquid scintillation counter. The binding of [^3H]CCK-8 in the presence of 1 μM CCK-8 when the test compound was not added was defined as non-specific binding. […]

This is an account of results in patent US6747022B2, “Calcium salts of 1,5-benzodiazepine derivatives, process for producing the salts and drugs containing the same” (Zeria Pharmaceutical Co., Ltd., priority 1999, dated 2004).

“calcium (R)-(−)-2-[3-[3-(1-tert-butylcarbonylmethyl-2-oxo-5-cyclohexyl-1,3,4,5-tetrahydro-2H-1,5-benzodiazepin-3-yl)ureido]phenyl]-2-methylpropionate [Compound of Example 4 (Ca salt)]”: the “Inhibition of acid output (%)” value in data set [1] (Table 2) worked out at 46.1%. In addition, in data set [2] (25° C., 97.3% RH, versus Compound of Example 5 in WO99/64403), the “Hygroscopicity compared with the corresponding Na salt” value is “lower hygroscopicity”. The “Weight change (%) when stored at 25° C. and 97.3% RH” value (shortened to “Weight change (%) when stored”) in data set [2] (storage days 0) was determined as 0%; in data set [2] (storage days 2), 8.15%; in data set [2] (storage days 4) it was 7.87%; in data set [2] (storage days 7), 8.38%; in data set [2] (storage days 9), 9.07%; in data set [2] (storage days 11), 8.14%. Moreover, the “Weight change (%) when stored” value in data set [2] (storage days 18) amounted to 8.51%; in data set [2] (storage days 30), 8.23%.

On to `CC(C)(C)C(=O)CN1C(=O)[C@H](NC(=O)Nc2cccc(C(=O)[O-])c2)CN(C2CCCCC2)c2ccccc21.CC(C)(C)C(=O)CN1C(=O)[C@H](NC(=O)Nc2cccc(C(=O)[O-])c2)CN(C2CCCCC2)c2ccccc21.[Ca+2]` [Compound of Example 1 (Ca salt), calcium (R)-(−)-3-[3-(1-tert-butylcarbonylmethyl-2-oxo-5-cyclohexyl-1,3,4,5-tetrahydro-2H-1,5-benzodiazepin-3-yl)ureido]benzoate], for which, in data set [3] (25° C., 97.3% RH, versus Na salt of Compound of Example 143 in WO98/25911), the “Hygroscopicity compared with the corresponding Na salt” value is listed as “lower hygroscopicity”. Besides, the “Weight change (%) when stored” value is recorded as 0% in data set [3] (storage time 0 day); 4.61% in data set [3] (storage time 1 day); 5.00% in data set [3] (storage time 2 days); 4.94% in data set [3] (storage time 3 days); 4.97% in data set [3] (storage time 4 days); 5.43% in data set [3] (storage time 10 days). Further, the “Weight change (%) when stored” value in data set [3] (storage time 14 days) is on record as 5.41%. This molecule showed an IC50 at CCK-B receptor of 1.68 nM. Also, the “Inhibition of acid output (%)” value in data set [1] is 42.3%.

In the case of `CC(C)(C)C(=O)CN1C(=O)[C@H](NC(=O)Nc2cccc(C(C)(C)C(=O)O)c2)CN(C2CCCCC2)c2ccccc21` [Compound of Example 4 in the free form, (R)-(−)-2-[3-[3-(1-tert-butylcarbonylmethyl-2-oxo-5-cyclohexyl-1,3,4,5-tetrahydro-2H-1,5-benzodiazepin-3-yl)ureido]phenyl]-2-methylpropionic acid, reference compound], the “Inhibition of acid output (%)” value in data set [1] (Table 2) was 13.7%.

For `CC(C)(C)C(=O)CN1C(=O)[C@H](NC(=O)Nc2cccc(C(=O)O)c2)CN(C2CCCCC2)c2ccccc21` [Compound of Example 1 in the free form, (R)-(−)-3-[3-(1-tert-butylcarbonylmethyl-2-oxo-5-cyclohexyl-1,3,4,5-tetrahydro-2H-1,5-benzodiazepin-3-yl)ureido]benzoic acid, reference compound], on CCK-B receptor, the IC50 is 1.45 nM. The “Inhibition of acid output (%)” value in data set [1] was 4.8%.

As a reminder, the IC50 is the concentration that inhibits the measured activity by half. A low value points to greater potency.
